Experimental data from PMC12567041 (Pharmaceutics, 2025).
Where “and” joins values, the source holds several entries; their conditions need not be identical. Equal values may be shown once. Entries after “also recorded” stand apart in the source; their conditions may differ.

Columns and labels:
[1] = cited from earlier work
[2] = in vitro; details: MDCK
[3] = cited from earlier work; remark: listed apart in the source
[4] = In vitro stability study in human feces; type: in vitro ADME; details: after 20 h
[5] = target: T1, UGT1A4 (Homo sapiens, UniProt P22310); assay: Inhibition of recombinant UGT1A4 by imatinib; type: in vitro ADME
T1 sequence (P22310 29-534): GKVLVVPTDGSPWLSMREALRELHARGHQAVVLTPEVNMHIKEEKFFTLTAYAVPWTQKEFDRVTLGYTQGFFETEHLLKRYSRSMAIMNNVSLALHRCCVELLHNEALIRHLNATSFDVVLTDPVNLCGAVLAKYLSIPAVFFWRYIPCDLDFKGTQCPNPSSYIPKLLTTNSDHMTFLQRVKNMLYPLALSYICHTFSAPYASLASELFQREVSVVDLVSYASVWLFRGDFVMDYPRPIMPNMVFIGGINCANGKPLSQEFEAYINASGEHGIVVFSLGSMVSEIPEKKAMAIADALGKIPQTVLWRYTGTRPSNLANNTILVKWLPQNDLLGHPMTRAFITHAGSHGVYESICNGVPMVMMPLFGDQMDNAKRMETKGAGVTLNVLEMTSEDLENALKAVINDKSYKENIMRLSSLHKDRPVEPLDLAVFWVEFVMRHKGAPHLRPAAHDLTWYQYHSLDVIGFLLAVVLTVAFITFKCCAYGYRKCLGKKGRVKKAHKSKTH

[6] = cited from earlier work; remark: listed apart in the source
[7] = tested on: CYP3A4
[8] = cited from earlier work; remark: listed apart in the source
[9] = tested on: MDCK-LE cell line; assay: Apparent passive permeability in MDCK-LE cells; details: from MDCK-LE permeability
[10] = Compartmental concentrations for static DDI risk assessment; parameters: species or system human
[11] = cited from earlier work; remark: listed apart in the source
[12] = tested on: CYP2J2; assay: Enzyme kinetics, recombinant CYP2J2; details: back-calculated, aim for fm = 0.0076
Source text: (§1) Using the Simcyp retrograde model, initial estimates of intrinsic clearance (CLint,u) were derived based on fractional contributions from recombinant human CYP and UGT enzymes, as well as additional intrinsic clearance in HLMs attributed to hydrolysis. Enzyme kinetic parameters (Km and Vmax) were used to establish the model, with Vmax values back-calculated as the product of CLint,u and Km to match the observed fm values to the total clearance.

[13] = Two-stage dissolution FaSSGF to FaSSIF; type: physicochemical; details: doses up to 200 mg
Description: […]. […] In vitro two-stage dissolution experiments, during which the drug/formulation is pre-exposed to fasted-state simulated gastric fluid (FaSSGF) for a 30 min period, at the end of which, properly concentrated fasted-state simulated intestinal fluid (FaSSIF) is immediately added to FaSSGF [13], were performed to assess the risk of precipitation in vitro. […] Considering the high passive permeability, this indicates low risk for compromised absorption in vivo, further supporting the assumption of the complete absorption of asciminib in humans in the fasted state.

[14] = with strong P-gp inhibitor quinidine; cited from earlier work
[15] = Preclinical volume of distribution across animal species; details: in vivo
Source text: Due to the inclusion of hepatic efflux transporters in Simcyp, the whole-body PBPK model was employed. […] However, the passive diffusion clearance (CLPD) in the PerL increases the Vss by moving the drug into the liver. A top-down approach was applied to adjust the Kp scalar to visually best fit the model to the distribution phase of the observed clinical PK data.

[16] = tested on: CYP2J2; details: Km*fumic; read-out: Km,u (CYP2J2), mean (SD); cited from earlier work
[17] = Clinical DDI studies, asciminib as victim (observed); type: in vivo, human; details: asciminib 200 mg single dose + phenytoin 100 mg TID
[18] = in vitro, mean (SD); cited from earlier work
[19] = Relative contributions of clearance pathways (fm/fe/ft); parameters: species or system human
Source text: However, as discussed below, the in vivo contribution of UGTs was later adjusted downward to account for BCRP-mediated biliary excretion.
The contributions of CYP enzymes and renal elimination remained unchanged. […] A summary of the Simcyp output for elimination pathways, with and without BCRP, is provided in Supplementary Table S1.

[20] = HLMs; cited from earlier work
[21] = Biopharmaceutics classification; type: physicochemical
[22] = tested on: CYP3A4; assay: Enzyme kinetics, recombinant CYP3A4; details: back-calculated, aim for fm = 0.351
Source text: as §1

[23] = tested on: CYP3A4/5; assay: Time-dependent inhibition of CYP3A4/5; type: in vitro ADME; details: up to 50 μM; in-house data
[24] = 40 mg dose; cited from earlier work
[25] = Fraction unbound in microsomal incubation (fumic); type: in vitro ADME; details: for fraction unbound: human, microsomes (microsomal incubation)
[26] = Table S1, sum of hepatic and renal UGT contributions
[27] = assuming no active biliary secretion

Structure (SMILES): Cc1nnc(C(=O)NC(C)(C)c2nc(C(=O)NCc3ccc(F)cc3)c(O)c(=O)n2C)o1 [Raltegravir, raltegravir]
- share eliminated by renal clearance ([1]; assumption of the raltegravir model): 9%

Structure (SMILES): CC(C)NCC(O)COc1cccc2ccccc12 (centres unmarked) [propranolol, reference compound]
- Papp A→B ([2]; dog): 36 ×10⁻⁶ cm/s

Structure (SMILES): O=C(Nc1ccc(OC(F)(F)Cl)cc1)c1cnc(N2CC[C@@H](O[C@@H]3O[C@H](C(=O)O)[C@@H](O)[C@H](O)[C@H]3O)C2)c(-c2ccn[nH]2)c1 [M30.5]
- share of the total AUC ([3]; circulating metabolite): 4.93%
- share of the administered dose ([3]; urinary metabolite): 5.4–8.4%
- stability in human feces [4]: almost completely hydrolyzed back to asciminib

Structure (SMILES): C[C@H]1[C@H](NC(=O)/C(=N\OC(C)(C)C(=O)O)c2csc(N)n2)C(=O)N1S(=O)(=O)O [aztreonam, reference compound]
- Papp A→B ([2]; dog): 0.24 ×10⁻⁶ cm/s

Structure (SMILES): Cc1ccc(NC(=O)c2ccc(CN3CCN(C)CC3)cc2)cc1Nc1nccc(-c2cccnc2)n1 [imatinib]
- IC50 [5]: 15 µM

Structure (SMILES): O=C(Nc1ccc(OC(F)(F)Cl)cc1)c1cnc(N2CC[C@@H](O)C2)c(-c2ccn[nH]2)c1 [asciminib]
- Log P: Octanol–water partition/logD pH 6.8 [6]: 3.9
- Emax (CYP3A4), non-calibrated [7]: Non-calibrated Emax = 4.4 In-house data fold
- Indmax (=Emax + 1) (CYP3A4), in vitro measured [7]: 5.4 fold
- exposure reduction, high-fat fed [8]: 70%
- exposure reduction, low-fat fed [8]: 33%
- predicted fraction absorbed (fa) [9]: 93% and ~ 93%
- Cgut (maximal gut concentration) ([10]; 40 mg BID): 356 µM
- Cgut,ent (maximal enterocyte concentration) ([10]; 40 mg BID): 10.5 µM
- Ch,in,tot (total maximal hepatic inlet plasma concentration) ([10]; 40 mg BID): 4.47 µM
- Ch,in,u (unbound maximal hepatic inlet plasma concentration at the steady state) ([10]; 40 mg BID): 0.121 µM
- Cgut (maximal gut concentration) ([10]; 80 mg QD): 711 µM
- Cgut,ent (maximal enterocyte concentration) ([10]; 80 mg QD): 20.9 µM
- Ch,in,tot (total maximal hepatic inlet plasma concentration) ([10]; 80 mg QD): 9.38 µM
- Ch,in,u (unbound maximal hepatic inlet plasma concentration at the steady state) ([10]; 80 mg QD): 0.253 µM
- Cgut (maximal gut concentration) ([10]; 200 mg BID): 1778 µM
- Cgut,ent (maximal enterocyte concentration) ([10]; 200 mg BID): 52.4 µM
- Ch,in,tot (total maximal hepatic inlet plasma concentration) ([10]; 200 mg BID): 26.1 µM
- Ch,in,u (unbound maximal hepatic inlet plasma concentration at the steady state) ([10]; 200 mg BID): 0.704 µM
- estimated gastrointestinal luminal concentration ([10]; lowest clinical dose 20 mg): ~ 178 μM
- unchanged asciminib in urine [3]: 4.4 % of the administered radioactive dose
- parent asciminib in feces due to back-conversion of M30.5 ([3]; estimated from late-time-point feces profile): 24%
- CLr (renal clearance) ([3]; healthy): 1.8 mL/min/1.73 m^2
- unchanged asciminib in cumulative feces ([3]; pooled 0–96 h or 0–168 h, average): 56.7 % of the dose
- flux in presence of elevated bile acid concentrations (FeSSIF) [11]: reduced asciminib flux
- Vmax (CYP2J2) [12]: 0.355 pmol/min/pmol CYP
- duration of sustained supersaturation [13]: at least 1 h
- precipitation in vitro [13]: < 20%
- decrease of asciminib AUC [14]: 13%
- decrease of asciminib Cmax [14]: 11%
- Vd [15]: 0.5 to 2.2 L/kg
- Km [16]: 0.694 µM
- reduction of AUCinf, observed [17]: 34%
- reduction of Cmax, observed [17]: 22%
- fup (fraction unbound in plasma) [18]: 0.027 (0.011)
- CYP2C8: aim for fm/fe/ft, Simcyp output (without BCRP) ([19]; Table S1): 0.007
- CYP2C8: aim for fm/fe/ft, final fm (including hepatic BCRP) ([19]; Table S1): 0.005
- CYP2C8: fm/fe based on hADME ([19]; Table S1): 0.005
- CYP2D6: aim for fm/fe/ft, Simcyp output (without BCRP) ([19]; Table S1): 0.003
- CYP2D6: aim for fm/fe/ft, final fm (including hepatic BCRP) ([19]; Table S1): 0.002
- CYP2D6: fm/fe based on hADME ([19]; Table S1): 0.002
- CYP2J2: aim for fm/fe/ft, Simcyp output (without BCRP) ([19]; Table S1): 0.011
- CYP2J2: aim for fm/fe/ft, final fm (including hepatic BCRP) ([19]; Table S1): 0.0076
- CYP2J2: fm/fe based on hADME ([19]; Table S1): 0.0076
- CYP3A4: aim for fm/fe/ft, Simcyp output (without BCRP) ([19]; Table S1): 0.509
- CYP3A4: aim for fm/fe/ft, final fm (including hepatic BCRP) ([19]; Table S1): 0.351
- CYP3A4: fm/fe based on hADME ([19]; Table S1): 0.351
- Hepatic BCRP: aim for fm/fe/ft, final fm (including hepatic BCRP) ([19]; Table S1): 0.311
- Hydrolysis: aim for fm/fe/ft, Simcyp output (without BCRP) ([19]; Table S1): 0.010
- Hydrolysis: aim for fm/fe/ft, final fm (including hepatic BCRP) ([19]; Table S1): 0.007
- Hydrolysis: fm/fe based on hADME ([19]; Table S1): 0.007
- Renal excretion: aim for fm/fe/ft, Simcyp output (without BCRP) ([19]; Table S1): 0.035
- Renal excretion: aim for fm/fe/ft, final fm (including hepatic BCRP) ([19]; Table S1): 0.044
- Renal excretion: fm/fe based on hADME ([19]; Table S1): 0.044
- UGT1A3: aim for fm/fe/ft, Simcyp output (without BCRP) ([19]; Table S1): 0.048
- UGT1A3: aim for fm/fe/ft, final fm (including hepatic BCRP) ([19]; Table S1): 0.033
- UGT1A3: fm/fe based on hADME ([19]; Table S1): 0.0705
- UGT1A4: aim for fm/fe/ft, Simcyp output (without BCRP) ([19]; Table S1): 0.048
- UGT1A4: aim for fm/fe/ft, final fm (including hepatic BCRP) ([19]; Table S1): 0.033
- UGT2B7: aim for fm/fe/ft, Simcyp output (without BCRP) ([19]; Table S1): 0.190
- UGT2B7: aim for fm/fe/ft, final fm (including hepatic BCRP) ([19]; Table S1): 0.131
- UGT2B17: aim for fm/fe/ft, Simcyp output (without BCRP) ([19]; Table S1): 0.110
- UGT2B17: aim for fm/fe/ft, final fm (including hepatic BCRP) ([19]; Table S1): 0.076
- UGT2B17: fm/fe based on hADME ([19]; Table S1): 0.163
- UGT1A4: fm/fe based on hADME [19, 26]: 0.0705
- UGT2B7: fm/fe based on hADME [19, 26]: 0.279
- revised total UGT contribution to total clearance ([19]; after subtracting BCRP contribution): approximately 27.3%
- CYP-mediated contribution to total clearance [19, 27]: 36.6%
- UGT-mediated contribution to total clearance [19, 27]: 58.3%
- share of metabolism by glucuronidation [20]: ~ 65%
- share of metabolism by oxidative metabolism [20]: ~ 35%
- biopharmaceutics classification system (BCS) class [21]: class II
- recovery ([2]; dog): 88%
- Papp ([2]; human): 373 ×10⁻⁶ cm/s
- Vmax (CYP3A4) [22]: 3.8 pmol/min/pmol of CYP
- time-dependent inhibition (TDI) of CYP3A4/5 [23]: no apparent TDI; also recorded: no in vitro apparent time-dependent inhibition
- AUC in cancer patients [24]: 5800 to 6100 ng·h/mL
- fumic ([25]; 0.810 mg of protein/mL (CYP3A4 incubation)): 0.160
- fumic ([25]; 1.40 mg of protein/mL (CYP2J2 incubation)): 0.0925
- fumic ([25]; 1.5 mg of protein/mL (UGT incubation)): 0.0811
- fumic ([25]; 1.58 mg of protein/mL (CYP2C8 incubation)): 0.0829
- fumic ([25]; 1.86 mg of protein/mL (CYP2D6 incubation)): 0.0680
- fraction unbound ([25]; 0.025 mg/mL of protein): 0.871
- fraction unbound ([25]; 0.05 mg/mL of protein): 0.75
- fraction unbound ([25]; 0.5 mg/mL of protein): 0.208

Structure (SMILES): CN(CCOc1ccc(CC2SC(=O)NC2=O)cc1)c1ccccn1 (centres unmarked) [rosiglitazone]
- fm by CYP2C8 ([1]; probe substrate property): ≈ 0.6
- fm by CYP2C9 ([1]; probe substrate property): ≈ 0.3

Structure (SMILES): Cn1c(=O)c2c(ncn2C)n(C)c1=O [Caffeine, caffeine]
- fm by CYP1A2 ([1]; probe substrate property): ≈ 0.9

Structure (SMILES): CCOc1cc(CC(=O)N[C@@H](CC(C)C)c2ccccc2N2CCCCC2)ccc1C(=O)O [Repaglinide, repaglinide]
- fm by CYP2C8 ([1]; probe substrate property): ≈ 0.7
- fm by CYP3A ([1]; probe substrate property): ≈ 0.3

Structure (SMILES): COc1ccc2[nH]c([S+]([O-])Cc3ncc(C)c(OC)c3C)nc2c1 (centres unmarked) [Omeprazole, omeprazole]
- fm by CYP2C19 ([1]; CYP2C19 normal metabolizers): ≈ 0.9
- fm by CYP3A ([1]; probe substrate property): ≈ 0.1
